In the supplement of paper PMC11208160:

Experiment: recombinant UMI read abundance after kanamycin selection (control-corrected) (log10(CPM+1)); higher = more efficient recombination; extreme values may be limits of the assay; sequences stand for … in AGTGCAGAGAAAATCGGCCAGTTTTCTCTGCCTGCAGTCCGCATGCCGTGGGACCCCTTGGGTTCTAACCTGTTGCCTAGATTTATGCAGCGGACTGCCTTTCTCCCAAAGTGATAAACCGG…AGGTTGGTTTCACT; site = the 11-nt donor
Outline: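 For the IS621 bridge recombinase, a pooled Escherichia coli screen tested donor and donor-binding-loop pairs. Cells received the pair library together with a target plasmid encoding a fixed target and T7-inducible recombinase, then went onto IPTG (0.07 mM) plus kanamycin or unselected plates in duplicate. After PCR across the donor–target junction and sequencing, recombinant UMI counts were normalized to CPM, averaged, and scaled by control-derived factors. Each value is given as log10(CPM+1).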
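Also: IS621 bridge recombinase in Escherichia coli cells against a fixed T5 target plasmid.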

Sequence	recombinant UMI read abundance (log10)
TGCCTAGCATGGACCGGTTTTCCCGGTAATCCGTATTTGTT (site CGCCTAGCTAA)	0.0169
TGCCTAGCATGGACCGGTTTTCCCGGTAATCCGTATTTGTT (site GGCCTAGCTAA)	0.0245
TGCCTAGCATGGACCGGTTTTCCCGGTAATCCGTATTTGTT (site TGCCTAGCTAA)	0.0135
TGCCTCTCATGGACCGGTTTTCCCGGTAATCCGTATTTGCG (site TGCCTCTCTCG)	0.00512
TGCGAGGCATGGACCGGTTTTCCCGGTAATCCGTATTTGGT (site TGCAAGGCTAC)	0.35
TGCGAGGCATGGACCGGTTTTCCCGGTAATCCGTATTTGGT (site TGCCAGGCTAC)	0.0134
TGCGAGGCATGGACCGGTTTTCCCGGTAATCCGTATTTGGT (site TGCGAGGCTAC)	0.0084
TGCGAGGCATGGACCGGTTTTCCCGGTAATCCGTATTTGGT (site TGCTAGGCTAC)	0.242
TGCGGAACATGGACCGGTTTTCCCGGTAATCCGTATTTGCG (site TGCGGAACTCG)	0.885
TGCGGCACATGGACCGGTTTTCCCGGTAATCCGTATTTGCC (site TGCGGCACTGG)	1.44
TGCGGCACATGGACCGGTTTTCCCGGTAATCCGTATTTGGA (site TGCGGCACTTC)	0.0197
TGCGGGCCATGGACCGGTTTTCCCGGTAATCCGTATTTGCT (site TGCGGGCCTAG)	0
TGCGGTTCATGGACCGGTTTTCCCGGTAATCCGTATTTGAA (site TGCGGTTCTTT)	0.557
TGCTACGCATGGACCGGTTTTCCCGGTAATCCGTATTTGGT (site TGCTAAGCTAC)	0.00535
TGCTACGCATGGACCGGTTTTCCCGGTAATCCGTATTTGGT (site TGCTACGCTAC)	0.202
TGCTACGCATGGACCGGTTTTCCCGGTAATCCGTATTTGGT (site TGCTAGGCTAC)	0
TGCTACGCATGGACCGGTTTTCCCGGTAATCCGTATTTGGT (site TGCTATGCTAC)	0.00567
TGCTAGCCATGGACCGGTTTTCCCGGTAATCCGTATTTGGT (site TGCTAGACTAC)	0.00818
TGCTAGCCATGGACCGGTTTTCCCGGTAATCCGTATTTGGT (site TGCTAGCCTAC)	0.0034

Sequence	recombinant UMI read abundance (log10)
TGCTAGCCATGGACCGGTTTTCCCGGTAATCCGTATTTGGT (site TGCTAGGCTAC)	0.0165
TGCTAGCCATGGACCGGTTTTCCCGGTAATCCGTATTTGGT (site TGCTAGTCTAC)	0.00984
TGCTAGGCATGGACCGGTTTTCCCGGTAATCCGTATTTGCT (site TGCTAGGCTAA)	0.0205
TGCTAGGCATGGACCGGTTTTCCCGGTAATCCGTATTTGCT (site TGCTAGGCTAC)	0.0125
TGCTAGGCATGGACCGGTTTTCCCGGTAATCCGTATTTGCT (site TGCTAGGCTAG)	0.521
TGCTAGGCATGGACCGGTTTTCCCGGTAATCCGTATTTGCT (site TGCTAGGCTAT)	0.00772
TGCTAGGCATGGACCGGTTTTCCCGGTAATCCGTATTTGGA (site TGCTAGGCTAC)	0.138
TGCTAGGCATGGACCGGTTTTCCCGGTAATCCGTATTTGGA (site TGCTAGGCTCC)	0.0137
TGCTAGGCATGGACCGGTTTTCCCGGTAATCCGTATTTGGA (site TGCTAGGCTGC)	0
TGCTAGGCATGGACCGGTTTTCCCGGTAATCCGTATTTGGA (site TGCTAGGCTTC)	0.261
TGCTAGGCATGGACCGGTTTTCCCGGTAATCCGTATTTGGC (site TGCTAGGCTAC)	0.0365
TGCTAGGCATGGACCGGTTTTCCCGGTAATCCGTATTTGGC (site TGCTAGGCTCC)	0.013
TGCTAGGCATGGACCGGTTTTCCCGGTAATCCGTATTTGGC (site TGCTAGGCTGC)	0
TGCTAGGCATGGACCGGTTTTCCCGGTAATCCGTATTTGGC (site TGCTAGGCTTC)	0.0105
TGCTAGGCATGGACCGGTTTTCCCGGTAATCCGTATTTGTT (site TGCTAGGCTAA)	0.282
TGCTAGGCATGGACCGGTTTTCCCGGTAATCCGTATTTGTT (site TGCTAGGCTAC)	0.00683
TGCTAGGCATGGACCGGTTTTCCCGGTAATCCGTATTTGTT (site TGCTAGGCTAG)	0.00242
TGCTAGGCATGGACCGGTTTTCCCGGTAATCCGTATTTGTT (site TGCTAGGCTAT)	0
